One assay deals with Factor XIa (Homo sapiens, UniProt P03951). Nature of the assay: Factor XIa inhibition assay utilizing a fluorophore-quencher pair peptide substrate (FLINT). The assay is classed as biochemical. The settings on record: 11-point, 3-fold serial dilution, top 100 nM; 30 min preincubation; 15 μM 5Fam-KLTRAETV-K5Tamra substrate; kinetic reads over 30 min; read-out: FXIa Inhibition IC50. The text has this:
Biological Example 1: Factor XIa Inhibition Assay Utilizing a Fluorophore-Quencher Pair Peptide Substrate
A fluorescence intensity (FLINT) based assay was used to monitor inhibition of Factor XIa. The peptide substrate, 5Fam-KLTRAETV-K5Tamra (purchased from New England Peptide) was chosen based on the FXI sequence. Conversion of zymogen FXI to its activated form, FXIa, occurs by proteolytic cleavage by […] at two sites, Arg146 and Arg180. The custom peptide used in this assay was based on the Arg146 cleavage site of FXI. The peptide substrate was designed with a fluorophore-quencher pair, where the fluorescence is quenched until FXIa cleaves the 8-mer peptide after the Arg residue.
The Factor XIa FLINT assay was used with the following 5Fam-KLTRAETV-K5Tamra assay buffer: 50 mM Tris, pH 7.5, 100 mM NaCl, 5 mM CaCl2, 0.1 mg/mL BSA, 0.03% CHAPS. Assay buffer was prepared by mixing all ingredients fresh. 5Fam-KLTRAETV-K5Tamra peptide substrate was first prepared at 10 mM in 100% DMSO, then diluted to 3 mM in 100% DMSO. Assay buffer was then added directly to the 3 mM stock of substrate to prepare the 30 μM 2× working concentration (15 μM final concentration). The 2× Factor XIa stock solution was prepared by diluting 6.562 μM stock in 1× assay buffer for a […].
Test compound(s) were run in an 11-point, 3-fold serial dilution with a final top compound concentration of 100 nM. Final DMSO in assay was 2%. FXIa was preincubated with compound for 30-minutes and then substrate was added to initiate the reaction. The assay was run with kinetic (KIN) reads at 5 min intervals over 30 minutes. […] More specifically, the assay was run as follows: • 100 nL of 0.01 mM test compound was dispensed into black 384-well non-binding Greiner BioOne 784900 plate for 0.1 μM final concentration, • 5 μL of 1× assay buffer was dispensed to column 24 (low control) and 5 μL 2× Factor XIa solution was dispensed to columns 1-23 (column 23 high control); • the plate was centrifuged with a “cover” plate at 500 rpm for 1 min • the plate was pre-incubated for 30 minutes at room temperature with plate covered; • 5 μL of 2×5Fam-KLTRAETV-K5Tamra peptide substrate was dispensed into the entire plate, columns 1-24; • the plate was centrifuged with a “cover” plate at 500 rpm for 1 min; • the plate was read monitoring fluorescence intensity on the BMG PHERAStar at room temperature, using fluorescence module 485 nm/520 nm.
(§1) Percent inhibition (IC50) curves were generated per compound tested, and data was analyzed using a 4-parameter logistic fit using GeneData Screener. The relative fluorescence unit (RFU) values were normalized to percent inhibition using the following equation: % inhibition=((HC−LC)−(compound−LC)/(HC−LC))*100
where LC—low control=mean signal of no Factor XIa or 100% inhibition of Factor XIa; HC—high control=mean signal of Factor XIa+5Fam-KLTRAETV-K5Tamra peptide substrate with DMSO only.
(§2) An 11-point dose response curve for the test compound(s) was generated using GENDATA to determine IC50 value based on the following equation: Y=Bottom+(Top−Bottom)/(1+10^((log IC50−X)*HillSlope))
where Y is the % inhibition in the presence of X inhibitor concentration, Top=high control=mean signal of Factor XIa+5Fam-KLTRAETV-K5Tamra peptide substrate with DMSO only; Bottom=low control—mean signal of no Factor XIa or 100% inhibition of Factor XIa; HillSlope—Hill coefficient; and IC50=concentration of compound with 50% inhibition in relation to top/high control.

Another assay addresses human plasma kallikrein (Homo sapiens, UniProt P03952). Put plainly: Kallikrein inhibition assay utilizing a quenched AMC peptide substrate (FLINT). Type of assay: biochemical. The settings on record: 11-point, 3-fold serial dilution, top 1 μM; 30 min preincubation; 2 nM kallikrein; 50 μM Z-Gly-Pro-Arg-AMC; kinetic reads over 30 min. How it is done:
Biological Example 2: Kallikrein Inhibition Assay Utilizing a Quenched AMC Peptide Substrate
A fluorescence intensity (FLINT) based assay was used to monitor inhibition of human plasma kallikrein. The peptide substrate, Z-Gly-Pro-Arg-AMC (Purchased from Bachem; Catalog #I-1150) was chosen based on its relatively low KM for kallikrein which enables running the assay at lower substrate concentrations to control background fluorescence. The kinetic parameters for this substrate were determined by fitting titration data to the Michaelis-Menten equation yielding a KM=40 μM, kcat=0.76 s^−1, and kcat/KM=18932 M^−1s^−1.
The Kallikrein FLINT assay was used with the following Z-Gly-Pro-Arg-AMC assay buffer: 50 mM Tris, pH 7.5, 100 mM NaCl, 5 mM CaCl2, 0.1 mg/mL BSA, 0.03% CHAPS. Assay buffer was prepared by mixing all ingredients fresh. 2× Z-Gly-Pro-Arg-AMC peptide substrate was prepared by diluting 10 mM stock into 1× assay buffer for a 100 μM working concentration (50 μM final concentration). The 2× kallikrein stock solution was prepared by diluting 14.76 μM stock in 1× assay buffer for a 4 nM working stock solution (2 nM final concentration).
Test compound(s) were run in an 11-point, 3-fold serial dilution with a final top compound concentration of 1 μM. Final DMSO in assay was 2%. Plasma kallikrein was pre-incubated for 30-minute with compound and then 50 μM substrate was added to initiate the reaction. The assay was run with kinetic (KIN) reads at 5 min intervals over 30 minutes. The time course was linear using 2 nM kallikrein greater than 30 minutes. More specifically, the assay was run as follows: • 100 nL of 0.1 mM test compound was dispensed into black 384-well non-binding Greiner BioOne 784900 plate for 1 μM final concentration; • 5 μL of 1× assay buffer was dispensed to columns 24 (low control) and 5 μL 2× human kallikrein enzyme solution was dispensed to columns 1-23 (column 23 high control); • the plate was centrifuged with a “cover” plate at 500 rpm for 1 min • the plate was pre-incubated for 30 minutes at room temperature with plate covered; • 5 μL of 2× Z-Gly-Pro-Arg-AMC peptide substrate was dispensed into the entire plate, columns 1-24; • the plate was centrifuged with a “cover” plate at 500 rpm for 1 min; • the plate was read monitoring fluorescence intensity on the BMG PHERAStar at room temperature, using fluorescence module 340 nm/440 nm.
as §1
where LC—low control=mean signal of […] 100% inhibition of human kallikrein enzyme; HC—high control=mean signal of […]+Z-Gly-Pro-Arg-AMC peptide substrate with DMSO only.
as §2
where Y is the % inhibition in the presence of X inhibitor concentration, Top=high control=mean signal of human kallikrein enzyme+Z-Gly-Pro-Arg-AMC peptide substrate with DMSO only; Bottom=low control—mean signal of no human kallikrein enzyme or 100% inhibition of human kallikrein enzyme; HillSlope—Hill coefficient; and IC50=concentration of compound with 50% inhibition in relation to top/high control.

human plasma kallikrein, sequence (P03952 391-638 limits assumed): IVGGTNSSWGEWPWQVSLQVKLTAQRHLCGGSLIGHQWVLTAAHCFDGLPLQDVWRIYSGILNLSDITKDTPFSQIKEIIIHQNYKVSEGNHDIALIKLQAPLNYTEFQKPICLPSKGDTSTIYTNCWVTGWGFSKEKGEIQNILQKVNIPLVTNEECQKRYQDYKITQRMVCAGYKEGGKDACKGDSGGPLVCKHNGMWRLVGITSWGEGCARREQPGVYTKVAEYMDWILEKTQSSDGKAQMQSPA
human plasma kallikrein, sequence (P03952 20-390 partner limits assumed): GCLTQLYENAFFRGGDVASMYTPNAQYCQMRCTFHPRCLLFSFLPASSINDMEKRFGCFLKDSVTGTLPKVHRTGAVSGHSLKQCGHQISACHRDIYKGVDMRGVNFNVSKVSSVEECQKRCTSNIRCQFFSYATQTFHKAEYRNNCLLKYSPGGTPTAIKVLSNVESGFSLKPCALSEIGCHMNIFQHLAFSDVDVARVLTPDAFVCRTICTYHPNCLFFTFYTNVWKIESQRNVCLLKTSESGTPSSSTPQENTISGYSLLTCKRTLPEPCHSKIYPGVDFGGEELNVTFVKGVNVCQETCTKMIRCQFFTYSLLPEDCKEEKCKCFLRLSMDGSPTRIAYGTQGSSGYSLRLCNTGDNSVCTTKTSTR
Factor XIa, sequence (P03951 388-625 limits assumed): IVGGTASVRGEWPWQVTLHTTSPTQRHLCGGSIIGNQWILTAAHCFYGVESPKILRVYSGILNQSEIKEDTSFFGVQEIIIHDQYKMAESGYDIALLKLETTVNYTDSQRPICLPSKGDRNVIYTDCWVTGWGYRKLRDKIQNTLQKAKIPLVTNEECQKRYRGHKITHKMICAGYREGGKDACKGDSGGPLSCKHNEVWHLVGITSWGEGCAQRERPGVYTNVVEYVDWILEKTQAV
Factor XIa, sequence (P03951 19-387 partner limits assumed): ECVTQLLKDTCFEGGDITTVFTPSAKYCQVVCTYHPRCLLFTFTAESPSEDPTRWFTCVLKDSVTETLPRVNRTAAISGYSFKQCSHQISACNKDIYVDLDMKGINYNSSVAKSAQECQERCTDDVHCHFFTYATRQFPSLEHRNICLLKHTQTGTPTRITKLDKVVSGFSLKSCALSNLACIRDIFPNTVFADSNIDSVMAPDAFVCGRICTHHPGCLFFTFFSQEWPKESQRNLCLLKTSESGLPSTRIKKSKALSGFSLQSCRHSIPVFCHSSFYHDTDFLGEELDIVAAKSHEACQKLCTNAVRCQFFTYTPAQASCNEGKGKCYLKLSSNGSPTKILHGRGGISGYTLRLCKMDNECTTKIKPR

In general, IC50 refers to the concentration that inhibits the measured activity by half. With `CO[C@@H]1C[C@@H](C(=O)Nc2ccc3nn(C)cc3c2)N2C(=O)C=C(c3c(-n4cnnn4)ccc(Cl)c3F)CC12` (mixture of isomers) [ID No. 44, (1R,3S)-7-[3-Chloro-2-fluoro-6-(tetrazol-1-yl)phenyl]-1-methoxy-N-(2-methyl-2H-indazol-5-yl)-5-oxo-2,3,8,8a-tetrahydro-1H-indolizine-3-carboxamide], the 50% inhibitory concentration (IC50) was 10.9 nM on Factor XIa and 31.4 nM on human plasma kallikrein.
In the same order, the values of `CO[C@@H]1C[C@@H](C(=O)Nc2ccc3ncccc3c2)N2C(=O)C=C(c3c(-n4cnnn4)ccc(Cl)c3F)CC12` (mixture of isomers) [ID No. 45, (1R,3S)-7-[3-Chloro-2-fluoro-6-(tetrazol-1-yl)phenyl]-1-methoxy-5-oxo-N-(6-quinolyl)-2,3,8,8a-tetrahydro-1H-indolizine-3-carboxamide] are 7.8 nM and 14 nM.
In the same order, the values of `CO[C@@H]1C[C@@H](C(=O)Nc2ccc3nccnc3c2)N2C(=O)C=C(c3c(-n4cnnn4)ccc(Cl)c3F)CC12` (mixture of isomers) [ID No. 46, (1R,3S)-7-[3-Chloro-2-fluoro-6-(tetrazol-1-yl)phenyl]-1-methoxy-5-oxo-N-quinoxalin-6-yl-2,3,8,8a-tetrahydro-1H-indolizine-3-carboxamide] are 5.3 nM and 12.3 nM.
In the same order, the values of `O=C(Nc1ccc(-c2nc(=O)o[nH]2)cc1F)[C@@H]1CCC2CC(c3c(-n4cnnn4)ccc(Cl)c3F)=CC(=O)N21` (mixture of isomers) [ID No. 47, (3S)-7-(3-Chloro-2-fluoro-6-(1H-tetrazol-1-yl)phenyl)-N-(2-fluoro-4-(5-oxo-2,5-dihydro-1,2,4-oxadiazol-3-yl)phenyl)-5-oxo-1,2,3,5,8,8a-hexahydroindolizine-3-carboxamide] are 23.3 nM and 274 nM.
For `O=C(Nc1ccc(-n2ccnn2)cc1)[C@@H]1CCC2CC(c3c(-n4cnnn4)ccc(Cl)c3F)=CC(=O)N21` (mixture of isomers) [ID No. 48, (3S)—N-(4-(1H-1,2,3-triazol-1-yl)phenyl)-7-(3-chloro-2-fluoro-6-(1H-tetrazol-1-yl)phenyl)-5-oxo-1,2,3,5,8,8a-hexahydroindolizine-3-carboxamide], the IC50 turned out to be 21.4 nM on Factor XIa and 86.3 nM against human plasma kallikrein.
In the same order, the values of `O=C(Nc1ccc(-n2nccn2)cc1)[C@@H]1CCC2CC(c3c(-n4cnnn4)ccc(Cl)c3F)=CC(=O)N21` (mixture of isomers) [ID No. 49, (3S)—N-(4-(2H-1,2,3-triazol-2-yl)phenyl)-7-(3-chloro-2-fluoro-6-(1H-tetrazol-1-yl)phenyl)-5-oxo-1,2,3,5,8,8a-hexahydroindolizine-3-carboxamide] are 30.5 nM and 54.2 nM.
In the same order, the values of `O=C(Nc1ccc2nc[nH]c2c1)[C@@H]1CCC2CC(c3c(-n4cnnn4)ccc(Cl)c3F)=CC(=O)N21` (mixture of isomers) [ID No. 53, (3S)—N-(1H-benzo[d]imidazol-6-yl)-7-(3-chloro-2-fluoro-6-(1H-tetrazol-1-yl)phenyl)-5-oxo-1,2,3,5,8,8a-hexahydroindolizine-3-carboxamide] are 11.1 nM and 56.2 nM.
In the same order, the values of `O=C(Nc1ccc2ncoc2c1)[C@@H]1CCC2CC(c3c(-n4cnnn4)ccc(Cl)c3F)=CC(=O)N21` (mixture of isomers) [ID No. 54, (3S)—N-(Benzo[d]oxazol-6-yl)-7-(3-chloro-2-fluoro-6-(1H-tetrazol-1-yl)phenyl)-5-oxo-1,2,3,5,8,8a-hexahydroindolizine-3-carboxamide] are 11.5 nM and 59 nM.
Turning to `O=C(Nc1ccc2ncsc2c1)[C@@H]1CCC2CC(c3c(-n4cnnn4)ccc(Cl)c3F)=CC(=O)N21` (mixture of isomers) [ID No. 55, (3S)—N-(Benzo[d]thiazol-6-yl)-7-(3-chloro-2-fluoro-6-(1H-tetrazol-1-yl)phenyl)-5-oxo-1,2,3,5,8,8a-hexahydroindolizine-3-carboxamide], the IC50 on Factor XIa was 6.6 nM; against human plasma kallikrein, 27.7 nM.
For `O=C(Nc1ccc2n[nH]nc2c1)[C@@H]1CCC2CC(c3c(-n4cnnn4)ccc(Cl)c3F)=CC(=O)N21` (mixture of isomers) [ID No. 56, (3S)—N-(2H-benzo[d][1,2,3]triazol-5-yl)-7-(3-chloro-2-fluoro-6-(1H-tetrazol-1-yl)phenyl)-5-oxo-1,2,3,5,8,8a-hexahydroindolizine-3-carboxamide], the results for the IC50 on Factor XIa and on human plasma kallikrein were 5.4 nM and 19 nM, respectively.
In the same order, the values of `O=C(Nc1ccc2[nH]nc(O)c2c1)[C@@H]1CCC2CC(c3c(-n4cnnn4)ccc(Cl)c3F)=CC(=O)N21` (mixture of isomers) [ID No. 57, (3S)-7-[3-Chloro-2-fluoro-6-(tetrazol-1-yl)phenyl]-N-(3-hydroxy-1H-indazol-5-yl)-5-oxo-2,3,8,8a-tetrahydro-1H-indolizine-3-carboxamide] are 16.7 nM and 36.1 nM.
In the same order, the values of `O=C(O)c1ccc(NC(=O)[C@@H]2CCC3CC(c4c(-n5cnnn5)ccc(Cl)c4F)=CC(=O)N32)cc1F` (mixture of isomers) [ID No. 58, 4-[[(3S)-7-[3-Chloro-2-fluoro-6-(tetrazol-1-yl)phenyl]-5-oxo-2,3,8,8a-tetrahydro-1H-indolizine-3-carbonyl]amino]-2-fluoro-benzoic acid] are 1.2 nM and 107 nM.

For the origin of these results see patent US12286429B2, “5-oxo-1,2,3,5,8,8a-hexahydroindolizine-3-carboxamide derivatives useful as a factor XIa inhibitors” (Janssen Pharmaceutica NV, priority 2021, dated 2025).
